Read-outs that look alike come from different tables or passages of the source.
Tests used:
Type in all cases: physicochemical
[1] = Solubility Experiment 2 (mesitylene); details: 5 mg in 1.6 g mesitylene, heated to 100° C.
Procedure: Into a 20-ml glass vessel equipped with a stirring apparatus were placed 5 mg of BBT-(1), and 1.6 g of mesitylene.
(§1) On the other hand, using BBT-(11): (FPTBBT) synthesized in Reference Example 1, instead of BBT-(1), the preparation of a solution of BBT-(11) in 1,2-dichlorobenzene was attempted in accordance with [Solubility Experiment 1]. […] The suspension was filtered through a 0.2-μm filter, and then dropped onto a silicon wafer as described above. And then, without any treatment, the solvent component was volatilized, but the formation of a thin film of BBT-(11) was not confirmed. Meanwhile, using BBT-(11), instead of BBT-(1), the preparation of a solution of BBT-(11) in mesitylene was attempted in accordance with [Solubility Experiment 2]. […] The suspension was filtered through a 0.2-μm filter, and then dropped onto a silicon wafer as described above. And then, without any treatment, the solvent component was volatilized, but the formation of a thin film of BBT-(11) was not confirmed.

[2] = Solubility Experiment 3 (chlorobenzene, visual observation); details: organic solvent or mixture, thermodynamic from solid, 1 mg in 1 mL chlorobenzene
Procedure: 1 mg of each compound shown in Table 1 [BBT-(1)-BBT-(14)] was added to 1 mL of a solvent (chlorobenzene) and the mixture was heated to 100° C. or 140° C., and the solubility was evaluated by visual observation.

[3] = Solubility Experiment 1 (1,2-dichlorobenzene); details: 5 mg in 1.6 g 1,2-dichlorobenzene, heated to 150° C.
Procedure: Into a 20-ml glass vessel equipped with a stirring apparatus were placed 5 mg of BBT-(1), and 1.6 g of 1,2-dichlorobenzene.
as §1

[4] = heated to 100° C., read-out: Solubility chlorobenzene (° C.) 100
[5] = heated to 140° C., read-out: Solubility chlorobenzene (° C.) 140

SMILES: FC(F)(F)Oc1ccc(-c2ccc(-c3c4c(c(-c5ccc(-c6ccc(OC(F)(F)F)cc6)s5)c5nsnc35)N=S=N4)s2)cc1 [BBT-(1)]
- Solubility in mesitylene [1]: completely dissolved
- solubility [2, 4]: > 1000 µg/mL
- solubility [2, 5]: > 1000 µg/mL
- Solubility in 1,2-dichlorobenzene [3]: completely dissolved

SMILES: FC(F)(F)Oc1cccc(-c2ccc(-c3c4c(c(-c5ccc(-c6cccc(OC(F)(F)F)c6)s5)c5nsnc35)N=S=N4)s2)c1 [BBT-(2)]
- solubility [2, 4]: > 1000 µg/mL
- solubility [2, 5]: > 1000 µg/mL

SMILES: FC(F)(F)Oc1ccccc1-c1ccc(-c2c3c(c(-c4ccc(-c5ccccc5OC(F)(F)F)s4)c4nsnc24)N=S=N3)s1 [BBT-(3)]
- solubility [2, 4]: > 1000 µg/mL
- solubility [2, 5]: > 1000 µg/mL

SMILES: CC(F)(F)c1ccc(-c2ccc(-c3c4c(c(-c5ccc(-c6ccc(C(C)(F)F)cc6)s5)c5nsnc35)N=S=N4)s2)cc1 [BBT-(4)]
- solubility [2, 4]: < 1000 µg/mL
- solubility [2, 5]: > 1000 µg/mL

SMILES: CCCCCCCCCCC(F)(F)c1ccc(-c2ccc(-c3c4c(c(-c5ccc(-c6ccc(C(F)(F)CCCCCCCCCC)cc6)s5)c5nsnc35)N=S=N4)s2)cc1 [BBT-(5)]
- solubility [2, 4]: > 1000 µg/mL
- solubility [2, 5]: > 1000 µg/mL

SMILES: CC(F)(F)Oc1ccc(-c2ccc(-c3c4c(c(-c5ccc(-c6ccc(OC(C)(F)F)cc6)s5)c5nsnc35)N=S=N4)s2)cc1 [BBT-(6)]
- solubility [2, 4]: < 1000 µg/mL
- solubility [2, 5]: > 1000 µg/mL

SMILES: CCCCCCCCCC(F)(F)Oc1ccc(-c2ccc(-c3c4c(c(-c5ccc(-c6ccc(OC(F)(F)CCCCCCCCC)cc6)s5)c5nsnc35)N=S=N4)s2)cc1 [BBT-(7)]
- solubility [2, 4]: > 1000 µg/mL
- solubility [2, 5]: > 1000 µg/mL

SMILES: CC(C)CC(F)c1ccc(-c2ccc(-c3c4c(c(-c5ccc(-c6ccc(C(F)CC(C)C)cc6)s5)c5nsnc35)N=S=N4)s2)cc1 (stereo not drawn) [BBT-(9)]
- solubility [2, 4]: < 1000 µg/mL
- solubility [2, 5]: > 1000 µg/mL

SMILES: CCCCCCCCCCOC(F)(F)c1ccc(-c2ccc(-c3c4c(c(-c5ccc(-c6ccc(C(F)(F)OCCCCCCCCCC)cc6)s5)c5nsnc35)N=S=N4)s2)cc1 [BBT-(10)]
- solubility [2, 4]: > 1000 µg/mL
- solubility [2, 5]: > 1000 µg/mL

SMILES: FC(F)(F)c1ccc(-c2ccc(-c3c4c(c(-c5ccc(-c6ccc(C(F)(F)F)cc6)s5)c5nsnc35)N=S=N4)s2)cc1 [BBT-(11), reference compound]
- Solubility in mesitylene [1]: not completely dissolved
- solubility [2, 4]: < 1000 µg/mL
- solubility [2, 5]: < 1000 µg/mL
- Solubility in 1,2-dichlorobenzene [3]: not completely dissolved

SMILES: Cc1ccc(-c2ccc(-c3c4c(c(-c5ccc(-c6ccc(C)cc6)s5)c5nsnc35)N=S=N4)s2)cc1 [BBT-(12), reference compound]
- solubility [2, 4]: > 1000 µg/mL
- solubility [2, 5]: > 1000 µg/mL

SMILES: COc1ccc(-c2ccc(-c3c4c(c(-c5ccc(-c6ccc(OC)cc6)s5)c5nsnc35)N=S=N4)s2)cc1 [BBT-(13), reference compound]
- solubility [2, 4]: < 1000 µg/mL
- solubility [2, 5]: > 1000 µg/mL

SMILES: CCCCCCCCCc1ccc(-c2ccc(-c3c4c(c(-c5ccc(-c6ccc(CCCCCCCCC)cc6)s5)c5nsnc35)N=S=N4)s2)cc1 [BBT-(14), reference compound]
- solubility [2, 4]: > 1000 µg/mL
- solubility [2, 5]: > 1000 µg/mL
